Measured values as given in patent publication US20240409557A1, “5,6-FUSED AND 6,6-FUSED BICYCLIC ALCOHOLS AND ETHERS AND COMPOSITIONS FOR USE AS 15-PROSTAGLANDIN DEHYDROGENASE MODULATORS” (AMGEN INC., priority 2023, published 2024).

Experiments:
15-PGDH in A549 cells = target: T1, 15-PGDH in A549 cells (Homo sapiens, UniProt P15428); assay: A549 cellular 15-PGDH assay (PGE2 accumulation, HTRF); type: cell-based; conditions: interleukin-stimulated, inhibitor 24 hrs, PGE2 by competitive HTRF, read-out: A549 Cell Assay IC50
T1 construct: endogenous in cells; host or cells: A549
T1 sequence (P15428 1-266): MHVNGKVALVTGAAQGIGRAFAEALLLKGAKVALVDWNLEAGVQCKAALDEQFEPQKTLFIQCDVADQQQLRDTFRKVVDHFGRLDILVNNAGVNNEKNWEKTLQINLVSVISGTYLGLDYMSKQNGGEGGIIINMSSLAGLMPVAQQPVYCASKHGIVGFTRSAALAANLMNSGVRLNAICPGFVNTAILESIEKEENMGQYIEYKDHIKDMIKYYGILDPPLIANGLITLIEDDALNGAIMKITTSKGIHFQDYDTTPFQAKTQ
In short: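 Supernatant PGE2 was quantified by competitive HTRF, in which sample PGE2 blocks FRET between a europium cryptate-labelled antibody and labelled PGE2. It came from A549 epithelial cells induced with IL-13. IC50s were calculated from the inversely proportional signal.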

[1] = target: T2, human recombinant 15-PGDH (Homo sapiens, UniProt P15428); assay: Recombinant 15-PGDH enzymatic inhibition assay (PGDH-Lumi, NADH signal); type: biochemical; conditions: recombinant 15-PGDH; 15 min pre-incubation, 60 min reaction with PGE2 and NAD+, NADH signal
T2 sequence (P15428 1-266): T1 sequence (P15428 1-266)
In short: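 Buffer 50 mM Tris pH 7.5 with 0.01% Tween-20 and […]; compound, 22 two-fold dilutions, pre-incubated with enzyme 15 min before substrate.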

SMILES: CO[C@]1(C)C[C@](O)(c2cc3cnc(-c4cnc5c(c4)nnn5C)nc3s2)C1 (single isomer, unassigned) [Compound C121T, trans-3-methoxy-3-methyl-1-(2-(3-methyl-3H-[1,2,3]triazolo[4,5-b]pyridin-6-yl)thieno[2,3-d]pyrimidin-6-yl)cyclobutanol]
- IC50 (15-PGDH in A549 cells): 13.4 nM
- IC50 [1]: 6.52 nM

SMILES: CO[C@]1(C)C[C@@](O)(c2nc3ccc(-c4cnc5nn(C)cc5c4)nc3s2)C1 (single isomer, unassigned) [Compound C125C, cis-3-methoxy-3-methyl-1-(5-(2-methyl-2H-pyrazolo[3,4-b]pyridin-5-yl)[1,3]thiazolo[5,4-b]pyridin-2-yl)cyclobutanol]
- IC50 (15-PGDH in A549 cells): 2.9 nM
- IC50 [1]: 0.817 nM

SMILES: CO[C@]1(C)C[C@](O)(c2nc3ccc(-c4cnc5nn(C)cc5c4)nc3s2)C1 (single isomer, unassigned) [Compound C125T, trans-3-methoxy-3-methyl-1-(5-(2-methyl-2H-pyrazolo[3,4-b]pyridin-5-yl)[1,3]thiazolo[5,4-b]pyridin-2-yl)cyclobutanol]
- IC50 (15-PGDH in A549 cells): 5.42 nM
- IC50 [1]: 0.75 nM

SMILES: Cn1cc2cc(-c3ccc4ccc([C@H](O)C5CC(F)(F)C5)cc4n3)cnc2n1 (single isomer, unassigned) [Compound D1R]
- IC50 (15-PGDH in A549 cells): 0.0822 nM
- IC50 [1]: 0.605 nM

SMILES: Cn1cc2cc(-c3ccc4ccc([C@@H](O)C5CC(F)(F)C5)cc4n3)cnc2n1 (single isomer, unassigned) [Compound D1S]
- IC50 (15-PGDH in A549 cells): 0.656 nM
- IC50 [1]: 1.17 nM

SMILES: Cn1nnc2cc(-c3ccc4ccc([C@H](O)C5CCOCC5)cc4n3)cnc21 (single isomer, unassigned) [Compound D3R]
- IC50 (15-PGDH in A549 cells): 289 nM
- IC50 [1]: 21700 nM

SMILES: Cn1nnc2cc(-c3ccc4ccc([C@@H](O)C5CCOCC5)cc4n3)cnc21 (single isomer, unassigned) [Compound D3S]
- IC50 (15-PGDH in A549 cells): > 750 nM
- IC50 [1]: 11500 nM

SMILES: Cn1cc2cc(-c3ccc4ccc([C@H](O)C5CCOCC5)cc4n3)cnc2n1 (single isomer, unassigned) [Compound D4R]
- IC50 (15-PGDH in A549 cells): 187 nM
- IC50 [1]: 243 nM

SMILES: Cn1cc2cc(-c3ccc4ccc([C@@H](O)C5CCOCC5)cc4n3)cnc2n1 (single isomer, unassigned) [Compound D4S]
- IC50 (15-PGDH in A549 cells): 305 nM
- IC50 [1]: 426 nM

SMILES: Cn1cc2cc(-c3ccc4cc([C@H](O)C5CC(F)(F)C5)ccc4n3)cnc2n1 (single isomer, unassigned) [Compound D7R]
- IC50 (15-PGDH in A549 cells): 61.8 nM
- IC50 [1]: 24.7 nM

SMILES: Cn1cc2cc(-c3ccc4cc([C@@H](O)C5CC(F)(F)C5)ccc4n3)cnc2n1 (single isomer, unassigned) [Compound D7S]
- IC50 (15-PGDH in A549 cells): 168 nM
- IC50 [1]: 265 nM

SMILES: Cn1cc2cc(-c3cc(-c4ccnn4C)c4cc(C(O)C5CCC5)sc4n3)cnc2n1 (centres unmarked) [Compound B2, cyclobutyl(6-(2-methyl-2H-pyrazolo[3,4-b]pyridin-5-yl)-4-(1-methyl-1H-pyrazol-5-yl)thieno[2,3-b]pyridin-2-yl)methanol]
- IC50 (15-PGDH in A549 cells): 1.04 nM
- IC50 [1]: 1.51 nM

SMILES: CC(O)c1cc2c(-c3ccnn3C)cc(-c3cnc4nn(C)cc4c3)nc2s1 (centres unmarked) [Compound B6, 1-(4-(1-methyl-1H-pyrazol-5-yl)-6-(2-methyl-2H-pyrazolo[3,4-b]pyridin-5-yl)thieno[2,3-b]pyridin-2-yl)ethan-1-ol]
- IC50 (15-PGDH in A549 cells): 39.4 nM
- IC50 [1]: 2.93 nM

SMILES: CC(O)c1cc2c(C3CC3)cc(-c3cnc4nn(C)cc4c3)nc2s1 (centres unmarked) [Compound B11, 1-(4-cyclopropyl-6-(2-methyl-2H-pyrazolo[3,4-b]pyridin-5-yl)thieno[2,3-b]pyridin-2-yl)ethanol]
- IC50 (15-PGDH in A549 cells): 31.9 nM
- IC50 [1]: 7.12 nM

SMILES: CCC(O)c1cc2c(C3CC3)cc(-c3cnc4nn(C)cc4c3)nc2s1 (centres unmarked) [Compound B13, 1-(4-cyclopropyl-6-(2-methyl-2H-pyrazolo[3,4-b]pyridin-5-yl)thieno[2,3-b]pyridin-2-yl)-1-propanol]
- IC50 (15-PGDH in A549 cells): 4.19 nM
- IC50 [1]: 0.901 nM

SMILES: Cn1cc2cc(-c3ccc4cc(C(O)C5CCOCC5)sc4n3)cnc2n1 (centres unmarked) [Compound B15, (6-(2-methyl-2H-pyrazolo[3,4-b]pyridin-5-yl)thieno[2,3-b]pyridin-2-yl)(tetrahydro-2H-pyran-4-yl)methanol]
- IC50 (15-PGDH in A549 cells): 0.957 nM
- IC50 [1]: 0.701 nM

SMILES: Cn1cc2cc(-c3ccc4cc(C(O)C5CC5)sc4n3)cnc2n1 (centres unmarked) [Compound B16, cyclopropyl(6-(2-methyl-2H-pyrazolo[3,4-b]pyridin-5-yl)thieno[2,3-b]pyridin-2-yl)methanol]
- IC50 (15-PGDH in A549 cells): 1.19 nM
- IC50 [1]: 0.471 nM

SMILES: Cn1cc2cc(-c3ccc4cc(C(O)C5CCC5)sc4n3)cnc2n1 (centres unmarked) [Compound B18, cyclobutyl(6-(2-methyl-2H-pyrazolo[3,4-b]pyridin-5-yl)thieno[2,3-b]pyridin-2-yl)methanol]
- IC50 (15-PGDH in A549 cells): 0.0918 nM
- IC50 [1]: 0.382 nM

SMILES: Cn1cc2cc(-c3ccc4cc(C(O)C5CCOC5)sc4n3)cnc2n1 (centres unmarked) [Compound B19]
- IC50 (15-PGDH in A549 cells): 0.171 nM
- IC50 [1]: 0.538 nM

SMILES: CCC(O)c1cc2ccc(-c3cnc4nn(C)cc4c3)nc2s1 (centres unmarked) [Compound B22, 1-(6-(2-methyl-2H-pyrazolo[3,4-b]pyridin-5-yl)thieno[2,3-b]pyridin-2-yl)-1-propanol]
- IC50 (15-PGDH in A549 cells): 1.29 nM
- IC50 [1]: 0.513 nM

SMILES: Cn1cc2cc(-c3ccc4cc(C(O)C(F)(F)F)sc4n3)cnc2n1 (centres unmarked) [Compound B23, 2,2,2-trifluoro-1-(6-(2-methyl-2H-pyrazolo[3,4-b]pyridin-5-yl)thieno[2,3-b]pyridin-2-yl)ethanol]
- IC50 (15-PGDH in A549 cells): 1.41 nM
- IC50 [1]: 0.341 nM

SMILES: CC(C)C(O)c1cc2ccc(-c3cnc4nn(C)cc4c3)nc2s1 (centres unmarked) [Compound B24, 2-methyl-1-(6-(2-methyl-2H-pyrazolo[3,4-b]pyridin-5-yl)thieno[2,3-b]pyridin-2-yl)propan-1-ol]
- IC50 (15-PGDH in A549 cells): 0.579 nM
- IC50 [1]: 0.517 nM

SMILES: CC(O)c1cc2ccc(-c3cnc4nn(C)cc4c3)nc2s1 (centres unmarked) [Compound B25, 1-(6-(2-methyl-2H-pyrazolo[3,4-b]pyridin-5-yl)thieno[2,3-b]pyridin-2-yl)ethanol]
- IC50 (15-PGDH in A549 cells): 16.4 nM
- IC50 [1]: 5.85 nM

SMILES: CCCC(O)c1cc2ccc(-c3cnc4nn(C)cc4c3)nc2s1 (centres unmarked) [Compound B27, 1-(6-(2-methyl-2H-pyrazolo[3,4-b]pyridin-5-yl)thieno[2,3-b]pyridin-2-yl)-1-butanol]
- IC50 (15-PGDH in A549 cells): 0.597 nM
- IC50 [1]: 0.402 nM

SMILES: Cn1cc2cc(-c3ccc4cc(C(O)C5COC5)sc4n3)cnc2n1 (centres unmarked) [Compound B28, (6-(2-methyl-2H-pyrazolo[3,4-b]pyridin-5-yl)thieno[2,3-b]pyridin-2-yl)(oxetan-3-yl)methanol]
- IC50 (15-PGDH in A549 cells): 1.07 nM
- IC50 [1]: 0.463 nM

SMILES: COCCC(O)c1cc2ccc(-c3cnc4nn(C)cc4c3)nc2s1 (centres unmarked) [Compound B29, 3-methoxy-1-(6-(2-methyl-2H-pyrazolo[3,4-b]pyridin-5-yl)thieno[2,3-b]pyridin-2-yl)propan-1-ol]
- IC50 (15-PGDH in A549 cells): 1.04 nM
- IC50 [1]: 0.38 nM

SMILES: Cn1cc2cc(-c3ccc4cc(C(O)C5CC(F)(F)C5)sc4n3)cnc2n1 (centres unmarked) [Compound B30, (3,3-difluorocyclobutyl)(6-(2-methyl-2H-pyrazolo[3,4-b]pyridine-5-yl)thieno[2,3-b]pyridine-2-yl)methanol]
- IC50 (15-PGDH in A549 cells): 0.795 nM
- IC50 [1]: 0.26 nM

SMILES: Cn1cc2cc(-c3ccc4cc(C(O)C5CCC(F)(F)CC5)sc4n3)cnc2n1 (centres unmarked) [Compound B31, (4,4-difluorocyclohexyl)(6-(2-methyl-2H-pyrazolo[3,4-b]pyridin-5-yl)thieno[2,3-b]pyridin-2-yl)methanol]
- IC50 (15-PGDH in A549 cells): 0.553 nM
- IC50 [1]: 0.42 nM

SMILES: COCC(O)c1cc2ccc(-c3cnc4nn(C)cc4c3)nc2s1 (centres unmarked) [Compound B32, 2-methoxy-1-(6-(2-methyl-2H-pyrazolo[3,4-b]pyridin-5-yl)thieno[2,3-b]pyridin-2-yl)ethanol]
- IC50 (15-PGDH in A549 cells): 7.49 nM
- IC50 [1]: 1.18 nM

SMILES: Cn1cnc(-c2ccc3cc(C(O)C4CC(F)(F)C4)sc3n2)cc1=O (centres unmarked) [Compound B49, 6-(2-((3,3-difluorocyclobutyl)(hydroxy)methyl)thieno[2,3-b]pyridine-6-yl)-3-methylpyrimidin-4(3H)-one]
- IC50 (15-PGDH in A549 cells): 0.739 nM
- IC50 [1]: 0.608 nM

SMILES: CC(C)n1cc2cc(-c3ccc4cc(C(O)C5CC(F)(F)C5)sc4n3)ccc2n1 (centres unmarked) [Compound B56, (3,3-difluorocyclobutyl)(6-(2-(2-propanyl)-2H-indazol-5-yl)thieno[2,3-b]pyridin-2-yl)methanol]
- IC50 (15-PGDH in A549 cells): 3.22 nM
- IC50 [1]: 1.15 nM

SMILES: Cn1cc2cc(-c3ccc4cc(C(O)C5CCCC5)sc4c3)cnc2n1 (centres unmarked) [Compound B58, cyclopentyl(6-(2-methyl-2H-pyrazolo[3,4-b]pyridin-5-yl)-1-benzothiophen-2-yl)methanol]
- IC50 (15-PGDH in A549 cells): 2.5 nM
- IC50 [1]: 0.488 nM

SMILES: Cn1cc2cc(-c3ccc4cc(C(O)CCC(F)(F)F)sc4c3)cnc2n1 (centres unmarked) [Compound B60, 4,4,4-trifluoro-1-(6-(2-methyl-2H-pyrazolo[3,4-b]pyridin-5-yl)-1-benzothiophen-2-y1)-1-butanol]
- IC50 (15-PGDH in A549 cells): 9.36 nM
- IC50 [1]: 3.03 nM

SMILES: CC(C)n1ncc2cc(-c3ccc4cc(C(O)C5CC(F)(F)C5)sc4n3)cnc21 (centres unmarked) [Compound B65, (3,3-difluorocyclobutyl)(6-(1-(2-propanyl)-1H-pyrazolo[3,4-b]pyridin-5-yl)thieno[2,3-b]pyridin-2-yl)methanol]
- IC50 (15-PGDH in A549 cells): 0.437 nM
- IC50 [1]: 0.944 nM
